Data taken from US12486246B2, “Replication protein A (RPA)-DNA interaction inhibitors” (THE TRUSTEES OF INDIANA UNIVERSITY, priority 2019, dated 2025).

Legend:
[1] = system: sonicated salmon sperm DNA; assay: Fluorescent intercalator displacement (FID) assay, SYBR-Green; assay type: binding; details: 25 mM MOPS pH 6.5
In short: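 Displacement of SYBR-Green from sonicated salmon sperm DNA (8.29 ng/μL) in 25 mM MOPS pH 6.5 with compound at indicated concentrations; doxorubicin positive control. Fluorescence (Ex 485/Em 528 nm) read within 5 min of incubation.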

[2] = Aqueous solubility in unbuffered water; assay type: physicochemical; details: 43, 44, 45, 46, 47 vs 9, 16, 26, 28, 29 respectively
Experimental: Aqueous solubility was determined by suspending compound in un-buffered water with stirring. Insoluble material was removed by sedimentation or filtration and soluble compound quantified by absorbance spectroscopy and LC/MS. pH dependence was determined by suspending compound in 10 mM citrate buffer at pH 4.0 or 10 mM phosphate […] as described above in the description.
The morpholine ring is commonly introduced into solvent exposed regions as a privileged solubilizing group to improve solubility or pharmacokinetic properties including metabolic stability of a prospective drug scaffold which is exemplified by many FDA approved drugs. Modifications on Ring A had less of an effect than the morpholino modifications at the alkyl carboxylic acid side chain. To determine the effect of pH on solubility, we prepared solution at 1 mM in citrate buffer at pH 4, phosphate buffer at pH 7 and carbonate buffer at pH 9.5.

H460 NSCLC cells = assay: Cell survival, CCK-8 metabolic assay, single agent; assay type: cell-based
Experimental: (§1) Cell survival was determined by CCK-8 viability assay and/or clonogenic survival assay in 96 well plates or 24 well plates, respectively and combination index (CI) analysis of drug-drug interactions determined by Chou-Talalay analysis as we have previously described. • 1) CCK-8 metabolic assay: Cells were plated (2500 cells/well) in 96-well plate and allowed to grow for at least 18 hours in at 37° C. in the presence of 5% CO2 before treatment with inhibitor for 48 hours. CCK-8 solution (Dojindo) was added to 10% of the total media volume and after 1-4 hours of incubation absorbance at 450 nm was determined using BioTek® Synergy™ H1 hybrid multi-mode microplate reader • 2) Clonogenic survival assay: Cells were plated in a 24 well (20,000 cells/well) plate, incubated for at least 18 hours and then treated with inhibitor. […] Images of the stained colonies were captured with a Fuji LAS-3000 CCD system then counted using OpenCFU software. Viability is determined as a percent of vehicle controls and plotted versus drug concentration. • 3) Assessment of synergy via combination index (CI): In the combination index studies, cells (H460 or SKGT4) were treated with RPA inhibitor and Pt/etoposide/bleomycin/taxol/DDR inhibitor alone as well as the combination of both—the inhibitor and the DNA damaging chemotherapeutic agent/DDR inhibitor. […]

[3] = system: A2780 epithelial ovarian cancer (EOC) cells; assay: Cell survival, single agent; assay type: cell-based
Experimental: as §1

[4] = system: GCT27 testicular cancer cells; assay: Cell survival, single agent; assay type: cell-based
Experimental: as §1

CCOc1ccc2cc(C3CC(c4ccc(I)cc4)=NN3C(=O)CCCC(=O)NCCCN3CCOCC3)c(Cl)nc2c1 (centres unmarked) [Compound 43, 5-(5-(2-Chloro-7-ethoxyquinolin-3-yl)-3-(4-iodophenyl)-4,5-dihydro-1H-pyrazol-1-yl)-N-(3-morpholinopropyl)-5-oxopentanamide]
DNA binding activity (displacement of SYBR-Green intercalator) [1]: No significant DNA binding activity | aqueous solubility compared to carboxylic acid counterpart (in words) [2]: increased solubility | cellular anticancer activity compared to compound 9 (H460 NSCLC cells): increase in cellular anticancer activity | cytotoxicity as compared to H460 NSCLC cells [3]: increased cytotoxicity | cytotoxicity as compared to H460 NSCLC cells [4]: increased cytotoxicity
